Assay results published in ChEMBL document CHEMBL2016493, “Design, synthesis, synergistic antimicrobial activity and cytotoxicity of 4-aryl substituted 3,4-dihydropyrimidinones of curcumin” (Bioorg Med Chem Lett, 2012).
Active and inactive are the calls of the source. The rule behind the calls is not given here.

Assays:
[1] = system: Burkholderia pseudomallei; assay: Antibacterial activity against Burkholderia pseudomallei NTCC 10274 at 20 uM/ml after 24 hrs by kirby-bauer method; format: functional; conditions: NTCC 10274, 24 h, read-out: IZ
Staphylococcus aureus [2] = assay: Antibacterial activity against Staphylococcus aureus ATCC 11632 at 40 uM/ml after 24 hrs by kirby-bauer method; format: functional
Trichoderma viride [3] = assay: Antifungal activity against Trichoderma viride MTCC 1107 at 20 uM/ml after 48 hrs by paper disc diffusion method; format: functional; conditions: MTCC 1107, 48 h, read-out: IZ
Aspergillus flavus [4] = assay: Antifungal activity against Aspergillus flavus MTCC 1021 at 160 uM/ml after 48 hrs by paper disc diffusion method; format: functional; conditions: MTCC 1021, 48 h, read-out: IZ
QG-56 = assay: Cytotoxicity against human QG56 cells after 48 hrs by MTT assay; format: functional, cell-based
Curvularia lunata [5] = assay: Antifungal activity against Curvularia lunata MTCC 581 at 20 uM/ml after 48 hrs by paper disc diffusion method; format: functional; conditions: MTCC 581, 48 h, read-out: IZ
[6] = system: Burkholderia pseudomallei; assay: Antibacterial activity against Burkholderia pseudomallei NTCC 10274 at 80 uM/ml after 24 hrs by kirby-bauer method; format: functional; conditions: NTCC 10274, 24 h, read-out: IZ
[7] = system: Burkholderia pseudomallei; assay: Antibacterial activity against Burkholderia pseudomallei NTCC 10274 at 160 uM/ml after 24 hrs by kirby-bauer method; format: functional; conditions: NTCC 10274, 24 h, read-out: IZ
Escherichia coli [8] = assay: Antibacterial activity against Escherichia coli ATCC 35218 at 160 uM/ml after 24 hrs by kirby-bauer method; format: functional; conditions: ATCC 35218, 24 h, read-out: IZ
Aspergillus niger [9] = assay: Antifungal activity against Aspergillus niger MTCC 1108 at 40 uM/ml after 48 hrs by paper disc diffusion method; format: functional
Aspergillus niger [10] = assay: Antifungal activity against Aspergillus niger MTCC 1108 at 80 uM/ml after 48 hrs by paper disc diffusion method; format: functional; conditions: MTCC 1108, 48 h, read-out: IZ
Aspergillus niger [11] = assay: Antifungal activity against Aspergillus niger MTCC 1108 at 20 uM/ml after 48 hrs by paper disc diffusion method; format: functional
Staphylococcus aureus [12] = assay: Antibacterial activity against Staphylococcus aureus ATCC 11632 at 80 uM/ml after 24 hrs by kirby-bauer method; format: functional; conditions: ATCC 11632, 24 h, read-out: IZ
Escherichia coli [13] = assay: Antibacterial activity against Escherichia coli ATCC 35218 at 80 uM/ml after 24 hrs by kirby-bauer method; format: functional; conditions: ATCC 35218, 24 h, read-out: IZ
Curvularia lunata [14] = assay: Antifungal activity against Curvularia lunata MTCC 581 at 80 uM/ml after 48 hrs by paper disc diffusion method; format: functional; conditions: MTCC 581, 48 h, read-out: IZ
Aspergillus flavus [15] = assay: Antifungal activity against Aspergillus flavus MTCC 1021 at 80 uM/ml after 48 hrs by paper disc diffusion method; format: functional
[16] = system: Burkholderia pseudomallei; assay: Antibacterial activity against Burkholderia pseudomallei NTCC 10274 at 40 uM/ml after 24 hrs by kirby-bauer method; format: functional; conditions: NTCC 10274, 24 h, read-out: IZ
Trichoderma viride [17] = assay: Antifungal activity against Trichoderma viride MTCC 1107 at 80 uM/ml after 48 hrs by paper disc diffusion method; format: functional; conditions: MTCC 1107, 48 h, read-out: IZ
Escherichia coli [18] = assay: Antibacterial activity against Escherichia coli ATCC 35218 at 40 uM/ml after 24 hrs by kirby-bauer method; format: functional; conditions: ATCC 35218, 24 h, read-out: IZ
Escherichia coli [19] = assay: Antibacterial activity against Escherichia coli ATCC 35218 at 20 uM/ml after 24 hrs by kirby-bauer method; format: functional; conditions: ATCC 35218, 24 h, read-out: IZ
Pseudomonas aeruginosa [20] = assay: Antibacterial activity against Pseudomonas aeruginosa ATCC 15499 at 80 uM/ml after 24 hrs by kirby-bauer method; format: functional; conditions: ATCC 15499, 24 h, read-out: IZ
Curvularia lunata [21] = assay: Antifungal activity against Curvularia lunata MTCC 581 at 40 uM/ml after 48 hrs by paper disc diffusion method; format: functional; conditions: MTCC 581, 48 h, read-out: IZ
Pseudomonas aeruginosa [22] = assay: Antibacterial activity against Pseudomonas aeruginosa ATCC 15499 at 20 uM/ml after 24 hrs by kirby-bauer method; format: functional; conditions: ATCC 15499, 24 h, read-out: IZ
Staphylococcus aureus [23] = assay: Antibacterial activity against Staphylococcus aureus ATCC 11632 at 160 uM/ml after 24 hrs by kirby-bauer method; format: functional
Trichoderma viride [24] = assay: Antifungal activity against Trichoderma viride MTCC 1107 at 40 uM/ml after 48 hrs by paper disc diffusion method; format: functional; conditions: MTCC 1107, 48 h, read-out: IZ
Aspergillus flavus [25] = assay: Antifungal activity against Aspergillus flavus MTCC 1021 at 20 uM/ml after 48 hrs by paper disc diffusion method; format: functional
Pseudomonas aeruginosa [26] = assay: Antibacterial activity against Pseudomonas aeruginosa ATCC 15499 at 40 uM/ml after 24 hrs by kirby-bauer method; format: functional; conditions: ATCC 15499, 24 h, read-out: IZ
Aspergillus niger [27] = assay: Antifungal activity against Aspergillus niger MTCC 1108 at 160 uM/ml after 48 hrs by paper disc diffusion method; format: functional; conditions: MTCC 1108, 48 h, read-out: IZ
Aspergillus flavus [28] = assay: Antifungal activity against Aspergillus flavus MTCC 1021 at 40 uM/ml after 48 hrs by paper disc diffusion method; format: functional
Salmonella typhimurium = assay: Antibacterial activity against Salmonella typhimurium ATCC 23564 at 160 uM/ml after 24 hrs by kirby-bauer method; format: functional; conditions: Salmonella enterica subsp. enterica serovar Typhimurium
Trichoderma viride [29] = assay: Antifungal activity against Trichoderma viride MTCC 1107 at 160 uM/ml after 48 hrs by paper disc diffusion method; format: functional; conditions: MTCC 1107, 48 h, read-out: IZ
Curvularia lunata [30] = assay: Antifungal activity against Curvularia lunata MTCC 581 at 160 uM/ml after 48 hrs by paper disc diffusion method; format: functional; conditions: MTCC 581, 48 h, read-out: IZ
Staphylococcus aureus [31] = assay: Antibacterial activity against Staphylococcus aureus ATCC 11632 at 20 uM/ml after 24 hrs by kirby-bauer method; format: functional
Pseudomonas aeruginosa [32] = assay: Antibacterial activity against Pseudomonas aeruginosa ATCC 15499 at 160 uM/ml after 24 hrs by kirby-bauer method; format: functional; conditions: ATCC 15499, 24 h, read-out: IZ

| SMILES | zone of inhibition at 20 µM [1] | zone of inhibition at 20 µM (Trichoderma viride [3]) | zone of inhibition at 160 µM (Aspergillus flavus [4]) | IC50 (QG-56) | zone of inhibition at 20 µM (Curvularia lunata [5]) | zone of inhibition at 80 µM [6] | zone of inhibition at 160 µM [7] | zone of inhibition at 160 µM (Escherichia coli [8]) | zone of inhibition at 80 µM (Aspergillus niger [10]) | inhibition zone (IZ) (Aspergillus niger [11]) | zone of inhibition at 80 µM (Escherichia coli [13]) | zone of inhibition at 80 µM (Curvularia lunata [14]) | zone of inhibition at 40 µM [16] | zone of inhibition at 80 µM (Trichoderma viride [17]) | zone of inhibition at 40 µM (Escherichia coli [18]) | zone of inhibition at 20 µM (Escherichia coli [19]) | zone of inhibition at 80 µM (Pseudomonas aeruginosa [20]) | zone of inhibition at 40 µM (Curvularia lunata [21]) | IC50 (HCT-116) | zone of inhibition at 20 µM (Pseudomonas aeruginosa [22]) | other results |
| --- | --- | --- | --- | --- | --- | --- | --- | --- | --- | --- | --- | --- | --- | --- | --- | --- | --- | --- | --- | --- | --- |
| COc1cc(/C=C/C(=O)C2=C(/C=C/c3ccc(O)c(OC)c3)NC(=S)NC2c2ccc(O)cc2)ccc1O (centres undefined) | 14 mm | 11 mm | 15 mm | 50 uM/ml | 20 mm | 17 mm | 19 mm | 22 mm | 11 mm | inactive | 18 mm | 22 mm | 16 mm | 17 mm | 17 mm | 13 mm | 14 mm | 21 mm | 50 uM/ml | 9 mm | inhibition zone (IZ) (Staphylococcus aureus [2]): inactive; zone of inhibition at 40 µM (Aspergillus niger [9]; MTCC 1108, 48 h, read-out: IZ): 9 mm; zone of inhibition at 80 µM (Staphylococcus aureus [12]): 10 mm; zone of inhibition at 80 µM (Aspergillus flavus [15]; MTCC 1021, 48 h, read-out: IZ): 13 mm; IC50 (HepG2): 100 uM/ml; zone of inhibition at 160 µM (Staphylococcus aureus [23]; ATCC 11632, 24 h, read-out: IZ): 12 mm; zone of inhibition (Trichoderma viride [24]): 14 mm; zone of inhibition at 20 µM (Aspergillus flavus [25]; MTCC 1021, 48 h, read-out: IZ): 9 mm; zone of inhibition at 40 µM (Pseudomonas aeruginosa [26]): 12 mm; zone of inhibition at 160 µM (Aspergillus niger [27]): 14 mm; zone of inhibition at 40 µM (Aspergillus flavus [28]; MTCC 1021, 48 h, read-out: IZ): 11 mm; inhibition zone (IZ) (Salmonella typhimurium): inactive; zone of inhibition at 160 µM (Trichoderma viride [29]): 20 mm; zone of inhibition at 160 µM (Curvularia lunata [30]): 24 mm; inhibition zone (IZ) (Staphylococcus aureus [31]): inactive; zone of inhibition at 160 µM (Pseudomonas aeruginosa [32]): 18 mm |
| COc1cc(/C=C/C(=O)C2=C(/C=C/c3ccc(O)c(OC)c3)NC(=S)NC2c2ccccc2)ccc1O (centres undefined) | 11 mm | 18 mm | 9 mm | 50 uM/ml | 18 mm | 16 mm | 18 mm | 21 mm | 14 mm | inactive | 18 mm | 23 mm | 13 mm | 21 mm | 14 mm | 12 mm | 17 mm | 21 mm | 100 uM/ml | 12 mm | inhibition zone (IZ) (Aspergillus niger [9]): inactive; inhibition zone (IZ) (Aspergillus flavus [15]): inactive; IC50 (HepG2): 50 uM/ml; inhibition zone (IZ) (Staphylococcus aureus [23]): inactive; zone of inhibition (Trichoderma viride [24]): 21 mm; inhibition zone (IZ) (Aspergillus flavus [25]): inactive; zone of inhibition at 40 µM (Pseudomonas aeruginosa [26]): 14 mm; zone of inhibition at 160 µM (Aspergillus niger [27]): 16 mm; inhibition zone (IZ) (Aspergillus flavus [28]): inactive; inhibition zone (IZ) (Salmonella typhimurium): inactive; zone of inhibition at 160 µM (Trichoderma viride [29]): 24 mm; zone of inhibition at 160 µM (Curvularia lunata [30]): 26 mm; zone of inhibition at 160 µM (Pseudomonas aeruginosa [32]): 18 mm |
